Each block holds one compound with its values, some of them ahead of it.
How the values were obtained:
[1] = Solid stability test of the crystal form B of the compound of formula (II-2) (XRPD); assay type: physicochemical
Description: About 10 mg of the crystal form was accurately weighed and added to a dry and clean glass flask, spread into a thin layer, covered with aluminum foil, pierced small holes and placed under the influence factor test conditions and under accelerated conditions. Samples placed under illumination (visible light 1200000 Lux, UV 200 W) conditions were placed in clear glass flasks, fully exposed, and samples used for XRPD detection were placed separately.
After the samples were removed at the time point, the cover was covered, and the flask was sealed using sealing film, and stored in −20° C. refrigerator. When preparing the sample, the sample was removed from the refrigerator, restored to room temperature; 80% ACN (10 mL) was added, and the sample was dissolved by sonication for 2 min to obtain a solution with a concentration of about 1 mg/mL, then the liquid phase was used for injection analysis, and the detection results were compared with the initial detection results on day 0.
Preparation of standard solution on day 0: About 10 mg of the crystal form was weighed and added to a 10 mL volumetric flask, dissolved with 80% ACN and the volume was fixed to the scale.

[2] = Pharmacokinetic study of the racemate of the compound of formula (I) in SD rats; assay type: in vivo
Description: 2.1 Pharmacokinetic Study of the Racemate of the Compound of Formula (I) in SD Rats
Experimental purpose: To study the pharmacokinetics of the compounds in SD rats
Experimental material: SD rats (male, 7-10 weeks old, WTLH/SLAC)
Experimental procedure: The pharmacokinetic characteristics of the compounds were tested in rodents after intravenous (IV) and oral (PO) administration using standard protocols. The candidate compounds were prepared into 0.2 mg/mL clarified solutions and administrated to rats for single intravenous injection and oral administration. The solvent for both intravenous and oral administration was 5% DMSO/95% (10% hydroxypropyl β-cyclodextrin) aqueous solution. […] Whole blood samples were collected within 24 hours, centrifuged at 3000 g for 15 minutes, and the supernatant was separated to obtain plasma samples, and the proteins were precipitated by adding acetonitrile solution containing internal standard; the mixture was well mixed and centrifuged, and the supernatant was injected for quantitative analysis of plasma drug concentrations by LC-MS/MS analysis method, and pharmacokinetic parameters were calculated, such as peak concentration (Cmax), clearance rate (CL), half-life (T1/2), […] (Vdss), area under the drug-time curve (AUC0-last), bioavailability (F), etc.

ROCK1 = ROCK1 (Homo sapiens, UniProt Q13464); assay: In vitro evaluation of ROCK protein kinase inhibitory activity (33P-ATP filter-binding), ROCK1; assay type: biochemical; settings: 1 nM kinase, 20 μM Long S6 Kinase substrate peptide, 2 hours room temperature
Description: (§1) 1. In Vitro Evaluation of ROCK Protein Kinase Inhibitory Activity
(§2) Experimental purpose: To detect the IC50 value of ROCK protein kinase inhibition of compounds.
(§3) Experimental materials: assay buffer solution: 20 mM 4-hydroxyethyl piperazine ethanesulfonic acid (pH 7.5), 10 mM magnesium chloride, 1 mM ethylene glycol diethyl ether diaminetetraacetic acid, 0.02% polyoxyethylene lauryl ether, 0.02 mg/mL bovine serum albumin, 0.1 mM sodium vanadate, 2 mM dithiothreitol, 1% DMSO.
Experimental operation: ROCK protein kinase substrate Long S6 Kinase substrate peptide was added to a freshly prepared buffer solution at a concentration of 20 μM, then 1 nM ROCK protein kinase was added, and the mixture was stirred evenly. A series of DMSO diluents containing the compounds to be tested were added with Echo550 (started at […], diluted by 3 times series), preincubated at room temperature for 20 minutes, and ^33P-ATP (radiation intensity 10 μCi/μL) was added to initiate the reaction, and the reaction was carried out for 2 hours at room temperature. […] Radiation intensity was detected using the Filter-Binding method.
(§4) The protein kinase inhibitory activity of the compound was expressed as the residual protein kinase activity relative to the blank substrate (DMSO alone). IC50 values and curves were calculated using the Prism software package (GraphPad Software, San Diego Calif., USA).

ROCK2 = ROCK2 (Homo sapiens, UniProt O75116); assay: In vitro evaluation of ROCK protein kinase inhibitory activity (33P-ATP filter-binding), ROCK2; assay type: biochemical
Description: as §1, §2, §3
Experimental operation: ROCK protein kinase substrate Long S6 Kinase substrate peptide was added to a freshly prepared buffer solution at a concentration of 20 μM, then 1 nM ROCK protein kinase was added, and the mixture was stirred evenly. A series of DMSO diluents containing the compounds to be tested were added with Echo550 (started at […], diluted by 3 times series), preincubated at room temperature for 20 minutes, and ^33P-ATP (radiation intensity 10 μCi/μL) was added to initiate the reaction, and the reaction was carried out for 2 hours at room temperature. The mixture was then filtered using P81 ion exchange paper (Whatman #3698-915) and washed with 0.75% phosphoric acid. Radiation intensity was detected using the Filter-Binding method.
as §4

Sequence of ROCK2 (O75116 whole entry): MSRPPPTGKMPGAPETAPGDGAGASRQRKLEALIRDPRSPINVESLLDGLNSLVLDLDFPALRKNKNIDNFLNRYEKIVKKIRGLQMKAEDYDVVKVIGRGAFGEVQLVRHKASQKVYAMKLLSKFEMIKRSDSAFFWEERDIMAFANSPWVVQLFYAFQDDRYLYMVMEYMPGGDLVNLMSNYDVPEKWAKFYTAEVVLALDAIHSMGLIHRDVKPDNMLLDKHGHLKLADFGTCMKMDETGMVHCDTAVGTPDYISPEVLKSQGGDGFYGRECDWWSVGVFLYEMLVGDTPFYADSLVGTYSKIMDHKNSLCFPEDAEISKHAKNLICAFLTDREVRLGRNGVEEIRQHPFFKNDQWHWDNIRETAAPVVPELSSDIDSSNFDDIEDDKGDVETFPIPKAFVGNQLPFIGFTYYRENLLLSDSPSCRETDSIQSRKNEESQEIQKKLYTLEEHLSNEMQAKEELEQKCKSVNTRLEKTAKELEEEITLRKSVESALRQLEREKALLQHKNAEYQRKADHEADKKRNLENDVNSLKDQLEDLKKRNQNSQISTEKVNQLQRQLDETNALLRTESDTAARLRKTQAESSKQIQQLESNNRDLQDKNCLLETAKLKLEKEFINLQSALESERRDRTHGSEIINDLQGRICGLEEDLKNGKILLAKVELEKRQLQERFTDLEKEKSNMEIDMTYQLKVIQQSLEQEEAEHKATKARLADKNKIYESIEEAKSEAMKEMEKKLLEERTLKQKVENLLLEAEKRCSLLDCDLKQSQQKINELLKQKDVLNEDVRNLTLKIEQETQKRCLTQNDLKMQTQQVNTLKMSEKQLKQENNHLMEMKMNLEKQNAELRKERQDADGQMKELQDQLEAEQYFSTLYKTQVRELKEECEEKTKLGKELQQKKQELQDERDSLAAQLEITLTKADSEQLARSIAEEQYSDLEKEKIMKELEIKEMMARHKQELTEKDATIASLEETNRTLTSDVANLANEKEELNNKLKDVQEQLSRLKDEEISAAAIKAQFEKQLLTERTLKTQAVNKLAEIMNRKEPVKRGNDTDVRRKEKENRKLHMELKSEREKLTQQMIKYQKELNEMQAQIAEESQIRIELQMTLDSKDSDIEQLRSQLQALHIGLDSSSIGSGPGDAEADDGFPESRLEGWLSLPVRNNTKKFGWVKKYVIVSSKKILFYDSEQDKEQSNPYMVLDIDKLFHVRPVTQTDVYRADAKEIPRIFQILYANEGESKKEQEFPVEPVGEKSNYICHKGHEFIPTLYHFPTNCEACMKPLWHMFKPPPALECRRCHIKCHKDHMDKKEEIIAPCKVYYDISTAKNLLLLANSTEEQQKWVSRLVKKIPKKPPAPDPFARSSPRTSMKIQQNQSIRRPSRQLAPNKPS
Sequence of ROCK1 (Q13464 whole entry): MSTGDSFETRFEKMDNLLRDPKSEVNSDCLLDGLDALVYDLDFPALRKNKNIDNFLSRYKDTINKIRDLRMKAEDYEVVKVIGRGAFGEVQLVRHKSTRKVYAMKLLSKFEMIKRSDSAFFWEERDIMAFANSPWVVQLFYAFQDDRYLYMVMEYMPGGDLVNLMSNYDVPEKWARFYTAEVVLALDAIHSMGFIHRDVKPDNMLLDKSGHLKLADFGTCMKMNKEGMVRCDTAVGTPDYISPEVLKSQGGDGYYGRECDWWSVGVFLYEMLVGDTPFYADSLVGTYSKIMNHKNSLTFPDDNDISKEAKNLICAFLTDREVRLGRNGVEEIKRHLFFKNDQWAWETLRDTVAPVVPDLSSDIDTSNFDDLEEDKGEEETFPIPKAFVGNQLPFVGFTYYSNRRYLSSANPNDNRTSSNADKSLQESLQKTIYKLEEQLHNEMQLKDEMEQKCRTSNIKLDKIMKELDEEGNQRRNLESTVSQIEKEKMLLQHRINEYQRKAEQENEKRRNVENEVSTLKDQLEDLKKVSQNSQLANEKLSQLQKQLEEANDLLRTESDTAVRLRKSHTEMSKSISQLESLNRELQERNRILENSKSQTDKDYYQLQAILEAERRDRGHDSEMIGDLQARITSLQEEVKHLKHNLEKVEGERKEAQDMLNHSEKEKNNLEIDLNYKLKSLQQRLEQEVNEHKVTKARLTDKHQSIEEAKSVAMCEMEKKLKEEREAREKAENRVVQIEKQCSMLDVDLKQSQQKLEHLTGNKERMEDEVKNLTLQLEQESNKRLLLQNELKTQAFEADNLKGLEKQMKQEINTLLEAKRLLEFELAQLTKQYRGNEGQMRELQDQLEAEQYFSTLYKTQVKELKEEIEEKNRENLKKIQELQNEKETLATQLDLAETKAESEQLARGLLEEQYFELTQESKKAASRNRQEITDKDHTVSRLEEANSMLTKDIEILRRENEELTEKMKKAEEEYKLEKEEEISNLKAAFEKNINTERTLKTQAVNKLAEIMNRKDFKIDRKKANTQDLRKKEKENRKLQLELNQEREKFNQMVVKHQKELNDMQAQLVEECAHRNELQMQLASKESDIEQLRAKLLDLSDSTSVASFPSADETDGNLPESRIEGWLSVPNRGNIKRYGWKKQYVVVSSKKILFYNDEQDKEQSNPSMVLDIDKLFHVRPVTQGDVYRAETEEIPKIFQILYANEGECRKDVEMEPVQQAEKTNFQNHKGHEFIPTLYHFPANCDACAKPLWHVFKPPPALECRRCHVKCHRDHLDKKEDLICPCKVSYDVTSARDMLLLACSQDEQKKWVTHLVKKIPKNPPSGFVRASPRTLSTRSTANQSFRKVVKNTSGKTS

Crystal form ([1]; 0 day): Crystal form B | Crystal form ([1]; High humidity (relative humidity 75%, open), 5 days): Crystal form B | Crystal form ([1]; High humidity (relative humidity 75%, open), 10 days): Crystal form B | Crystal form ([1]; High humidity (relative humidity 92.5%, open), 5 days): Crystal form B | Crystal form ([1]; High humidity (relative humidity 92.5%, open), 10 days): Crystal form B | Crystal form ([1]; High temperature (60° C., open), 5 days): Crystal form B | Crystal form ([1]; High temperature (60° C., open), 10 days): Crystal form B | Crystal form ([1]; High temperature and humidity (40° C. relative humidity 75%, open), first entry, 5 days): Crystal form B | Crystal form ([1]; High temperature and humidity (40° C. relative humidity 75%, open), first entry, 10 days): Crystal form B | Crystal form ([1]; High temperature and humidity (40° C. relative humidity 75%, open), second entry, 5 days): Crystal form B | Crystal form ([1]; High temperature and humidity (40° C. relative humidity 75%, open), second entry, 10 days): Crystal form B | Crystal form ([1]; Illumination (total illuminance = 1.2 × 10^6 Lux·hr/near UV = 200 w·hr/m^2, open), 5 days): Crystal form B | Crystal form ([1]; Illumination (total illuminance = 1.2 × 10^6 Lux·hr/near UV = 200 w·hr/m^2, open), 10 days): Crystal form B | solid stability (conclusion in words) ([1]; high temperature, high humidity and strong illumination conditions): good stability
Structure (SMILES): CC(=O)O.COc1cccc(C(CN)NC(=O)c2cc(-c3ccc4[nH]nc(C)c4c3)ccn2)c1 (centres unmarked)

pharmacokinetic properties (conclusion in words) [2]: good pharmacokinetic properties | Vd ([2]; rat, plasma, male, IV 1 mg/kg, read-out: Tissue distribution Vdss): 6 L/kg
Structure (SMILES): COc1cccc(C(CN)NC(=O)c2cc(-c3ccc4[nH]nc(C)c4c3)ccn2)c1 (racemic) [Racemate of compound of formula (I)]

IC50 (ROCK1): 13 nM | inhibitory activity against ROCK2 (conclusion in words) (ROCK2): good inhibitory activity | IC50 (ROCK2; 1 nM kinase, 20 μM Long S6 Kinase substrate peptide, 33P-ATP, 2 hours room temperature): 2 nM | selectivity for ROCK2 (conclusion in words) (ROCK2; ROCK2 versus ROCK1): some selectivity
Structure (SMILES): COc1cccc([C@@H](CN)NC(=O)c2cc(-c3ccc4[nH]nc(C)c4c3)ccn2)c1 [Compound of formula (II)]

Source: patent US11702400B2, “Salt types, crystal forms, and preparation methods for benzopyrazole compounds as RHO kinase inhibitors” (MEDSHINE DISCOVERY INC., priority 2019, dated 2023)
